Source: patent US20250375528A1, “CONJUGATE OF CELL-PENETRATING PEPTIDE AND MELPHALAN, AND PREPARATION CONTAINING CONJUGATE” (priority 2021, published 2025)
Converted amounts (≈) assume the structure as drawn. Where two headings read alike, the source gives them in different places. Where a SMILES comes first, the peptide text is derived from it. Where no end group is shown, it is not given here. [ ]: non-standard residue; d: D form. ξ: configuration not given here. ξPhe(4-N(CH2CH2Cl)2) = NC(Cc1ccc(N(CCCl)CCCl)cc1)C(=O)O

Legend:
Fluc/GFP-Rb-1 cells [1] = assay: In vivo safety evaluation in orthotopic tumor-bearing mouse model
Method: Before the experiments, the healthy male Balb/c-nude mice (4 weeks old) were subjected to ophthalmic examination to ensure the normal eyes. Amobarbital sodium (40 mg/kg) was injected intraperitoneally to the mice for general anesthesia, the commercially available 0.4% oxybuprocaine hydrochloride eye drops were administrated to the surface of the eyes for local anesthesia of the eye surface, and the commercially available 0.5% tropicamide eye drops were administrated for pupil dilation. The Fluc/GFP-Rb-1 cells (resuspended in 10 mM PBS at a density of 1×10^4 cells/μL) were injected into the vitreous body of the mice via a micro-syringe (33 G, Hamilton), 2 μL cell suspension for each eye.
For the tumor-bearing mice, administration was performed by ocular surface dropping.
Detection scheme: At the end of 1 month administration, the mice were euthanized by an overdose of anesthesia (anaobarbital sodium, 150 mg/kg). The cardiac perfusion was performed sequentially with normal saline and 4% paraformaldehyde. The eyeballs, hearts, liver, spleen, lung, kidney, brain and other organs were harvested and dehydrated overnight in 15% and 30% sucrose solutions gradient. The HE stained sections and immunohistochemical sections were made and observed.

ARPE-19 cells [2] = format: cell-based; details: ARPE-19, 4 hrs co-incubation then 24 h fresh medium, MTT
Method: (§1) The ARPE-19 and WERI-Rb-1 cells with good growth status in the logarithmic phase were placed on 96 well plates at a density of 2000 cells/well. After incubation for 24 hrs, the drug solutions at different concentrations were added. The ARPE-19 cells were incubated at 37° C. for 4 hrs. Then, the drug solutions were discarded. The plates were washed with PBS thrice. The fresh medium was then added and incubated for 24 h. Then, 0.5 mg/mL MTT was added and incubated at 37° C. for 4 hrs. The culture solution was discarded. To each well DMSO (150 μl) was added, and the plates were shaken on a shaker for 20 min. Then, the OD490nm value was measured. For the WERI-Rb-1 cells, they were incubated with drug solutions for 4 hrs, and CCK-8 reagent (10 μL) was added to each well. The plates were incubated at 37° C. for 2 hrs. The OD490nm value was measured directly. In addition, zero_adjustment wells and negative control wells (cell survival rate 100%) were set.

WERI-Rb-1 cells = format: cell-based; details: WERI-Rb-1, 4 hrs co-incubation, CCK-8
Method: as §1

[3] = Solubility assay in normal saline (HPLC); format: physicochemical; details: 37° C.
Method: Liquid chromatography detection conditions for melphalan: column: YMC-Pack ODS-A column (150×4.6 mm, 5 μm); mobile phase: 40% acetonitrile solution; flow rate: 0.7 mL/min; column temperature: 25° C.; detection wavelength: 260 nm; injection volume: 10 μL.
Solubility assay: melphalan 0.1 mg was accurately weighted and dispersed in 1 mL normal saline, ultrasonicated for 5 min, incubated at 37° C. for 24 hrs, and filtered through 0.22 μm filter membrane. The peak area of the sample was obtained by liquid chromatography. The concentration of the sample was calculated by substituting the peak area in the standard curve equation.
Liquid chromatography detection conditions for 89WP-Mel and 289WP-Mel: column: YMC-Pack ODS-A column (150×4.6 mm, 5 μm); mobile phase: 5-65% acetonitrile (with 0.1% TFA), 30 min; flow rate: 0.7 mL/min; column temperature: 25° C.; detection wavelength: 214 nm; injection volume: 10 μL.
Solubility assay: The excess amount of 89WP-Mel or 289WP-Mel was dispersed in 60 μL normal saline, ultrasonicated for 5 min, incubated at 37° C. for 24 hrs, filtered through 0.22 μm filter membrane, and then diluted 10 times and 20 times respectively. The peak area of the samples was obtained by liquid chromatography. The concentration of the samples was calculated by substituting the peak area in the standard curve equation.
The samples were incubated in normal saline at 37° C. and 160 rpm for 24 h to obtain the saturated solutions. The solubility of the conjugates is converted to the solubility of melphalan moiety.

[4] = Hematology safety evaluation (complete blood cell count); format: in vivo, ICR mice; details: eye dropping 2 times a day for 2 weeks
Method: Safety evaluation of 89WP-Mel eye drops: it is likely that the eye drops may be absorbed systemically, while the chemotherapeutic drug melphalan may cause systemic toxicity. The representative side effects include bone marrow suppression, etc. Thus, hematology evaluation was performed in the administration groups to determine the safety of the eye drops. Healthy male ICR mice (18-20 g) were subjected to the administration according to the regimen of pharmacodynamic evaluation experiment, wherein the frequency of eye dropping the normal saline, melphalan solution, and 89WP-Mel solution was changed to 2 times a day for 2 weeks, and the melphalan intravitreal injection was performed once a week. At the end of administration, 200 μL of whole blood was taken, anticoagulated with EDTA, and subjected to a complete blood cell count.

HCEC cells [5] = assay: cells; format: cell-based; details: 4 hrs co-incubation then 24 h fresh medium, MTT
Method: The survivals of the HCEC, ARPE-19 and WERI-Rb-1 cells after co-incubation with polypeptides or conjugates were investigated by the MTT or CCK-8 methods (n=4). The HCEC or ARPE-19 cells were co-incubated with polypeptides or conjugates for 4 hrs, followed by incubation in fresh medium for 24 h before addition of MTT for detection. The WERI-Rb-1 cells were co-incubated with the polypeptides or conjugates for 4 hrs, and then CCK-8 was added directly for detection. The cells under normal culture conditions were used as negative control (100% survival).
as §1

Fluc/GFP-Rb-1 cells [6] = assay: Intraocular pharmacodynamic evaluation in tumor-bearing mice; format: in vivo
Method: Specifically, D-luciferin (150 mg/kg) was injected intraperitoneally into each mouse, followed by general anesthesia with isoflurane. Twenty minutes after anesthesia, ocular bioluminescence signals were collected, with 30 seconds exposure time. On the day of administration (D0) and at the corresponding time points after administration, the bioluminescence signals of the mice eyeballs in each group were collected. […] The whole brain tissue was harvested. The immunohistochemical sections were made and observed.

[7] = system: retinoblastoma (Fluc/GFP-Rb-1) cells; assay: Eye drops for treatment of intraocular retinoblastoma, mouse model; format: in vivo, Balb/c nude mice; details: for mice with obvious tumor areas in the brain sections: 8 mice per group
Method: Construction of retinoblastoma mouse model: the male Balb/c nude mice (18-20 g) were subjected to general anesthesia by intraperitoneal injection of amobarbital sodium (30 mg/kg). The 0.4% oxybuprocaine hydrochloride was administrated for local anesthesia of the eye surface. After the anesthesia, the 0.5% tropicamide was administrated for pupil dilation. The retinoblastoma (Fluc/GFP-Rb-1) cells (resuspended in 2 μL 10 mM PBS, 2×10^4 cells for each mouse) were slowly injected into the vitreous body near retina via a micro-syringe (33 G, Hamilton). After the injection, 0.25% chloramphenicol was dropped to the ocular surface to prevent ocular inflammation. Then, it is determined whether the model was successfully established according to the bioluminescent signal intensity in the eyes of the mice. The successfully established model mice were randomly divided into 4 groups, with 8 mice in each group.
During the 60-day pharmacodynamic evaluation experiment, the dosage regimens for the different mice groups are as follows: Group 1: eye dropping with normal saline once a day, 10 μL for each dropping; Group 2: eye dropping with 3.0 mg/mL melphalan solution once a day, 10 μL for each dropping; Group 3: eye dropping with 89WP-Mel solution (containing 3.0 mg/mL melphalan) once a day, 10 μL for each dropping; Group 4: intravitreal injection with 0.5 mg/mL melphalan solution once every two weeks, 2 μL for each injection.
The method of efficacy evaluation is as follows: on Day 0, 2, 4, 6, 9, 12, 15, 17, 20, 25 and 30 after the administration, the mice in each group were injected intraperitoneally with 150 mg/kg D-Luciferin, followed by anesthesia with isoflurane for 15 min. The bioluminescent signal intensity in the eyes of the mice was detected by IVIS Spectrum system (PerkinElmer, USA).

red blood cells = assay: Ability to lyse red blood cells at different pH; format: cell-based
Method: The red blood cells were resuspended at a density of 7×10^7 cells/mL in incubation medium at different pHs. The cell suspension (75 μL) was mixed with 75 μL of aqueous solution of test sample. Pure water was set as a negative control, and 1 μL Triton X-100 dissolved in 74 μL pure water was set as a positive control. Incubation was performed at 37° C. for 1 h in an air shaker at 200 rpm. After incubation, the samples were centrifugated at 1000 g for 5 min. The supernatant (100 μL) was taken to measure the OD450 nm/750 nm via microplate reader.

[8] = Ocular pharmacokinetic evaluation after eye dropping; format: in vivo, mice
Method: The distribution and elimination behavior of the conjugates in the eye tissues was investigated by dropping the drugs into the conjunctival sac of the mice. The conjugate solution 10 μL (at a concentration of 30 μM) was dropped into the conjunctival sac of the mice. The eyelids were gently closed to make the solution distributed evenly. […] The eyeballs were taken out and fixed with FAS eyeball fixative solution for 24 hours, dehydrated with 15% and 30% sucrose solution gradients, and then embedded in OCT to prepare 8 μm thick eyeball frozen sections. The cell nuclei were stained with DAPI.

HCEC cells [9] = assay: Intracellular distribution by laser confocal microscope; format: cell-based; details: 3 μM, 37° C., 4 hrs
Method: (§2) The HCEC and ARPE-19 cells with good growth status in the logarithmic phase were placed in 4-chamber confocal dishes at a density of 1×10^4 cells/well and incubated for 24 hrs. The drug solutions (all comprising 3 μM fluorescein) were added and incubated at 37° C. for 3.5 hrs. LysoTracker was then added and incubated for 0.5 hrs. Then, the drug solutions were discarded. After being washed with cold 10 mM PBS (containing 0.02 mg/mL heparin sodium) thrice and fixed with 4% paraformaldehyde, the nuclei were stained with DAPI.

ARPE-19 cell monolayer = assay: Penetration across the retinal pigment epithelial cell monolayer model; details: four hours after administration, 3 μM
Method: The model in FIG. 8B is obtained by seeding the WERI-Rb-1 cells in good growth state at 2×10^4 cells/well in the lower chamber 24 hours before administration.
Samples (200 μL for each sampling) were taken every 0.5 h from the lower chamber, and 200 μL fresh D-Hank's balanced salt solution was added immediately. A total of 8 samples were taken. The fluorescence signal intensity of the samples was detected with a microplate reader (Ex 490 nm/Em 520 nm).
The calculation formula of the Apparent Permeability Coefficient (Papp) is as follows:
wherein, ΔQ/Δt is the change of the molar amount of the polypeptide across the retinal pigment epithelial cell monolayer model per unit time, which can be obtained from the slope by fitting the cumulative permeability and the diffusion time; C0 is the initial concentration of the polypeptide in the donor cell, which is 3 μM; A is the area of the cornea or sclera exposed to the diffusion medium, i.e., the effective diffusion area, which is 0.825 cm^2.

ARPE-19 cells [10] = assay: Intracellular distribution by laser confocal microscope; format: cell-based; details: ARPE-19, 3 μM, 37° C., 4 hrs
Method: as §2

[11] = read-out: Solubility of drug-polypeptide conjugate
[12] = intravitreal injection 0.5 mg/mL
[13] = saline or isotonic, thermodynamic from solid, read-out: Solubility of drug
[14] = four hours after dropping, 30 μM

CC[C@H](C)[C@H](NC(=O)[C@H](CCCCN)NC(=O)[C@@H](NC(=O)[C@H](CCC(N)=O)NC(=O)[C@@H](N)CCCNC(=N)N)[C@@H](C)CC)C(=O)N[C@@H](Cc1c[nH]c2ccccc12)C(=O)N[C@@H](Cc1ccccc1)C(=O)N[C@@H](Cc1c[nH]c2ccccc12)C(=O)N[C@@H](Cc1c[nH]c2ccccc12)C(=O)N[C@@H](CCCNC(=N)N)C(=O)N[C@@H](CCCNC(=N)N)C(=O)N[C@@H](CCSC)C(=O)N[C@@H](CCCCN)C(=O)N[C@@H](Cc1c[nH]c2ccccc12)C(=O)N[C@@H](CCCCN)C(=O)N[C@@H](CCCCN)C(=O)NC(Cc1ccc(N(CCCl)CCCl)cc1)C(=O)O (stereo partly drawn) [89WP-Mel] (H-RQIKIWFWWRRMKWKK[ξPhe(4-N(CH2CH2Cl)2)]-OH)
safety by HE-stained sections of the various organs (Fluc/GFP-Rb-1 cells [1]; eye dropping, 1 month): safe | IC50 (ARPE-19 cells [2]; read-out: IC50): 177 µM | IC50 (WERI-Rb-1 cells): 0.28 µM | solubility at 24 h [3, 11]: 44.7 ± 2.62 mg/mL (≈ 16.8 mM) | platelet count versus normal saline eye dropping group [4]: did not significantly decrease | red blood cell count versus normal saline eye dropping group [4]: did not significantly decrease | white blood cell count versus normal saline eye dropping group [4]: did not significantly decrease | IC50 (HCEC cells [5]; read-out: IC50): 147 µM

CC[C@H](C)[C@H](NC(=O)[C@H](CCCCN)NC(=O)[C@@H](NC(=O)[C@H](Cc1c[nH]c2ccccc12)NC(=O)[C@@H](N)CCCNC(=N)N)[C@@H](C)CC)C(=O)N[C@@H](Cc1c[nH]c2ccccc12)C(=O)N[C@@H](Cc1ccccc1)C(=O)N[C@@H](Cc1c[nH]c2ccccc12)C(=O)N[C@@H](Cc1c[nH]c2ccccc12)C(=O)N[C@@H](CCCNC(=N)N)C(=O)N[C@@H](CCCNC(=N)N)C(=O)N[C@@H](CCSC)C(=O)N[C@@H](CCCCN)C(=O)N[C@@H](Cc1c[nH]c2ccccc12)C(=O)N[C@@H](CCCCN)C(=O)N[C@@H](CCCCN)C(=O)NC(Cc1ccc(N(CCCl)CCCl)cc1)C(=O)O (stereo partly drawn) [289WP-Mel] (H-RWIKIWFWWRRMKWKK[ξPhe(4-N(CH2CH2Cl)2)]-OH; N-terminus assumed)
solubility at 24 h [3, 11]: 41.8 ± 1.39 mg/mL (≈ 15.4 mM)

N[C@@H](Cc1ccc(N(CCCl)CCCl)cc1)C(=O)O [melphalan]
mice with obvious brain tumor areas (Fluc/GFP-Rb-1 cells [6]; eye dropping 3.0 mg/mL): one | tumor growth curve versus normal saline eye dropping group (Fluc/GFP-Rb-1 cells [6]; eye dropping 10 μl once a day, 3.0 mg/mL melphalan content): no significant difference | mice with obvious brain tumor areas (Fluc/GFP-Rb-1 cells [6]; [12]): two | survival period versus normal saline group (Fluc/GFP-Rb-1 cells [6]; intravitreal injection 0.5 mg/mL, 2 μL, once per two weeks): no significant difference | size of the vitreous seeds of intraocular tumors, order of groups (Fluc/GFP-Rb-1 cells [1]; melphalan solution 3.0 mg/mL eye dropping): normal saline group≈melphalan solution eye dropping group | IC50 (ARPE-19 cells [2]): 100 to 200 µM | IC50 (ARPE-19 cells [2]; listed as Mel): 200 µM | solubility at 24 h [3, 13]: < 0.001 mg/mL | solubility thermodynamic at 24 h [3, 13]: < 0.001 mg/mL | mice with obvious tumor areas in the brain sections ([7]; eye dropping 3.0 mg/mL): 1 | anti-tumor effect in the first month of administration ([7]; eye drops once a day, 3.0 mg/mL melphalan content): no antitumor effect | mice with obvious tumor areas in the brain sections [7, 12]: 2 | IC50 (HCEC cells [5]; listed as Mel): 113 µM | IC50 (HCEC cells [5]; Homo sapiens): 100 to 200 µM

RQIKIWFWWRRMKWKK [89WP]
hemolysis ratio (red blood cells; pH 5.5, 40 μM): 16.4% | hemolysis ratio (red blood cells; pH 5.5, 640 μM): 45.1% | hemolysis ratio (red blood cells; pH 6.0, 160 μM): 21.7% | hemolysis ratio (red blood cells; pH 6.0, 640 μM): 33.3% | hemolysis ratio (red blood cells; pH 7.4, 640 μM): 25.8% | hemolysis ratio (red blood cells; pH 7.4, low concentration (<320 μM)): around 10%

carboxyl fluorescein [FAM]
time of peak fluorescence intensity in the retina ([8]; 10 μL of 30 μM dropped into conjunctival sac): 4 h | retinal fluorescence intensity versus blank retina ([8]; 8 hours after eye dropping): no significant difference | fluorescence signal in anterior ocular segment (cornea), whole eye sections [8, 14]: no obvious green or red fluorescence signal | fluorescence signal in posterior ocular segment (retina), whole eye sections [8, 14]: no obvious green or red fluorescence signal | fluorescence signal in the cells (HCEC cells [9]): no obvious green fluorescence signal | fluorescence signal at the donor side of the cell monolayer (ARPE-19 cell monolayer): no green fluorescence signal | fluorescence signal in the cells (ARPE-19 cells [10]): no obvious green fluorescence signal
